The record followed here is patent US12503452B2 (Curza Global, LLC, priority 2019, dated 2025).

Test [1] relates to E. coli S30 extract (bacterial protein synthesis). Nature of the test: E. coli S30 extract coupled transcription-translation luciferase assay (inhibition of bacterial protein synthesis). The format is biochemical. The note with it: class by IC50 or % inhibition @ 1 μM, read-out: S30 IC50 (μM/% inhib.). The procedure: E. coli S30 extract: Inhibition of bacterial protein synthesis was determined using the E. coli S30 Extract System for Circular DNA (Promega catalog #L-2010) and Luciferase Assay Reagent (Promega catalog #E1500) with slight modifications to a published protocol. Fyfe, C., Sutcliffe, J. A. and Grossman, T. H. (2012) “Development and characterization of a Pseudomonas aeruginosa in vitro coupled transcription-translation assay system for evaluation of translation inhibitors” J. Microbiol. Methods 90(3), 256-261.
Compounds were serial diluted in 0.5 mL microcentrifuge tubes by mixing and transferring 50 μL from the highest concentration to 50 μL of water, mixing and transferring 50 μL of this 2-fold dilution to 50 μL of water. This mixing and transferring was repeated so that there are a total of 8 tubes with serial dilutions of compound at 10× the desired screening concentration that are ultimately diluted to 1× by the addition of S30 luciferase synthesis mixture. Serial dilutions of compounds were added (2 μL) to wells in a black round bottom 96-well plate. Water (2 μL) was used as a “no inhibitor” control in 4 wells/plate. No DNA control reaction mixture (20 μL; see below) was used as a control in 4 wells/plate for background luminescence. S30 luciferase synthesis mixture (18 μL; see below) was added to wells with compounds or water mixture and incubated at 37° C. for 1 hour. Reactions were stopped by transferring to 4° C. refrigerator for 5 minutes then 25 μL of luciferase activity mix was added. Luminescence was measured using a BioTek Synergy HTX plate reader. % Inhibition was determined relative to no inhibitor controls.
S30 luciferase synthesis mixture:
• 445 μL S30 extract, circular • 712 μL S30 Premix without amino acids • 4.45 μL pBESTluc™ DNA (1 μg/μL) • 78 μL complete amino acid mixture • 267 μL water No DNA control: • 20 μL S30 extract, circular • 32 μL S30 Premix without amino acids • 7 μL complete amino acid mixture • 21 μL water Rabbit Reticulocyte lysate

Test [2] has as its target Rabbit Reticulocyte Lysate (eukaryotic protein synthesis). Kind of test: Rabbit reticulocyte lysate luciferase assay (inhibition of eukaryotic protein synthesis). The format is biochemical. The note with it: class by IC50 or % inhibition @ 1 μM, read-out: Rabbit reticulocyte IC50 (μM/% inhib.). How it is done:
Inhibition of eukaryotic protein synthesis was determined using the Rabbit Reticulocyte Lysate System, Nuclease-Treated from Promega (catalog #L-4960) with slight modifications to the manufacturer's protocol. Compounds were serial diluted in 0.5 mL microcentrifuge tubes by mixing and transferring 50 μL from the highest concentration to 50 μL of water, mixing and transferring 50 μL of this 2-fold dilution to 50 μL of water. This mixing and transferring was repeated so that there are a total of 8 tubes with serial dilutions of compound at 10× the desired screening concentration that are ultimately diluted to 1× by the addition of rabbit reticulocyte luciferase synthesis mixture. Serial dilutions of compounds were added ([…]) to wells in a black round bottom 96-well plate. Water (2.5 μL) was used as a “no inhibitor” control in 4 wells/plate. No RNA control reaction mixture ([…]; see below) was used as a control in 4 wells/plate for background luminescence. Rabbit reticulocyte luciferase synthesis mixture (22.5 μL; see below) was added to wells with compounds or water mixture and incubated at 30° C. for 90 minutes. Luciferase assay reagent (25 μL) was added with luminescence measured using a BioTek Synergy HTX plate reader. % Inhibition was determined relative to no inhibitor controls.
Rabbit reticulocyte luciferase synthesis mixture:
• 1,000 μL rabbit reticulocyte lysate • 5.7 μL Luciferase Control RNA (1 μg/μL) • 26 μL complete amino acid mixture • 395 μL water No RNA Control • 70 μL rabbit reticulocyte lysate • 2 μL complete amino acid mixture • 28 μL water Minimum Inhibitory Concentration (MIC)

Each structure is given as a SMILES string.

Take `CC(C)[C@H]1CN(C(=O)C(C)(C)N)CCN1C(=O)Nc1ccn(-c2ccc(CN3CCC(N)CC3)cc2)c(=O)n1` [Compound 77]: the IC50 in test [1] and in test [2] was > 1 µM in each case.
Regarding `CCC1CN(C(=O)Nc2ccn(-c3ccc(CN4CCC(N)CC4)cc3)c(=O)n2)CCN1C(=O)C(C)(C)N` (centres unmarked) [Compound 78], the IC50 in test [1] and in test [2] was > 1 µM throughout.
As for `CC(C)(N)C(=O)N1C[C@@H]2CC1CN2C(=O)Nc1ccn(-c2ccc(CN3CCC(N)CC3)cc2)c(=O)n1` [Compound 80], the values for the IC50 in test [1] and in test [2] were 0.5 to 1 µM and > 1 µM, respectively.
Consider `CC(C)(N)C(=O)N1CCN(C(=O)Nc2ccn(-c3ccc(CN4CCC(N)CC4)cc3)c(=O)n2)C[C@H]1C(=O)O` [Compound 81], for which the IC50 in test [1] and in test [2] was > 1 µM throughout.
For the compound `CC[C@H]1CN(C(=O)C(C)(C)N)CCN1C(=O)Nc1ccn(-c2ccc(CN3CCC(N)CC3)cc2)c(=O)n1` [Compound 83], the IC50 in test [1] and in test [2] was > 1 µM throughout.
With `CC[C@@H]1CN(C(=O)C(C)(C)N)CCN1C(=O)Nc1ccn(-c2ccc(CN3CCC(N)CC3)cc2)c(=O)n1` [Compound 84], the IC50 in test [1] and in test [2] was > 1 µM in each case.
As to `CC(C)(N)C(=O)N1CCCC2C1CCCN2C(=O)Nc1ccn(-c2ccc(CN3CCC(N)CC3)cc2)c(=O)n1` (centres unmarked) [Compound 86], the IC50 in test [1] and in test [2] was > 1 µM throughout.
On to `CC(C)(N)C(=O)N1CC2CCC1CN2C(=O)Nc1ccn(-c2ccc(CN3CCC(N)CC3)cc2)c(=O)n1` (centres unmarked) [Compound 87], for which the IC50 in test [1] and in test [2] was > 1 µM throughout.
In the case of `C[C@@H]1CN(C(=O)C(C)(C)N)[C@H](C)CN1C(=O)Nc1ccn(-c2ccc(CN3CCC(N)CC3)cc2)c(=O)n1` [Compound 88], the IC50 in test [1] and in test [2] was > 1 µM in each case.
Turning to `Cc1cc(-n2ccc(NC(=O)N3CCN(C(=O)CC(C)(C)N)CC3)nc2=O)ccc1CN1CCC(N)CC1` [Compound 94], the IC50 in test [1] and in test [2] was > 1 µM each time.
Turning to `C[C@H](N)C(=O)NC1CCN(Cc2ccc(-n3ccc(NC(=O)N4CCN(C(=O)[C@@](C)(N)CO)CC4)nc3=O)cc2)CC1` [Compound 100], the figures for the IC50 in test [1] and in test [2] were 0.5 to 1 µM and > 1 µM, respectively.
Take `Cc1cc(-n2ccc(NC(=O)N3CCN(C(=O)C(C)(N)CO)CC3)nc2=O)ccc1CN1CCC(N)CC1` (centres unmarked) [Compound 101]: the IC50 in test [1] was 0.5 to 1 µM; in test [2], > 1 µM.
Consider `CC(C)(N)C(=O)N1CCN(C(=O)Nc2ccn(-c3cccc(CN4CCC(NC(=N)N)CC4)c3)c(=O)n2)CC1` [Compound 102], for which the IC50 in test [1] and in test [2] was > 1 µM in each case.
As for `Cc1cc(-n2ccc(NC(=O)N3CCN(C(=O)C(C)(C)N)CC3)nc2=O)ccc1CN1CCC(NC(=N)N)CC1` [Compound 104], the values for the IC50 in test [1] and in test [2] were < 0.5 µM and > 1 µM, respectively.
In the same order, the values of `CC(C)(N)C(=O)N1CCN(C(=O)Nc2ccn(-c3ccc(CN4CCC(NC(=N)N)CC4)cc3)c(=O)n2)CC1` [Compound 105] are < 0.5 µM and < 0.5 µM.
Turning to `CC(C)(N)CC(=O)N1CCN(C(=O)Nc2ccn(-c3ccc(CN4CCC(N)CC4)c(C(F)(F)F)c3)c(=O)n2)CC1` [Compound 106], the IC50 in test [1] and in test [2] was > 1 µM each time.
Turning to `CC(C)(N)C(=O)N1CCN(C(=O)Nc2ccn(-c3ccc(CN4CCC(C(F)(F)F)CC4)cc3)c(=O)n2)CC1` [Compound 107], the IC50 in test [1] and in test [2] was > 1 µM each time.
Consider `CC(C)(N)C(=O)N1CCN(C(=O)Nc2ccn(-c3ccc(CN4CCOC(CN)C4)cc3)c(=O)n2)CC1` (centres unmarked) [Compound 135], for which the IC50 in test [1] and in test [2] was > 1 µM each time.
For the compound `CC(C)(N)C(=O)N1CCN(C(=O)Nc2ccn(-c3ccc(CC[N+]4(C)CCC(N)CC4)cc3)c(=O)n2)CC1` (centres unmarked) [Compound 196], the IC50 in test [1] was < 0.5 µM; in test [2], > 1 µM.
